From patent US8440720B2, “Methods of use of antiviral compounds” (Influmedix, Inc., priority 2009, dated 2013)

What follows are molecules tested against T1, M2(S31) (Influenza A virus, UniProt P0DOF5) (assay: Cell-free electrophysiology of M2 proton channels on solid supported membranes (IonGate SURFE2R)). Details: 25 μM compound, activation by pH jump 7.0 to 6.0, read-out: IonGate_M2(S31)_Screen % Inhibition at 25 μM.
T1 construct: expressed in transfected cells; host or cells: CHO cell membranes
T1 sequence (P0DOF5 whole entry): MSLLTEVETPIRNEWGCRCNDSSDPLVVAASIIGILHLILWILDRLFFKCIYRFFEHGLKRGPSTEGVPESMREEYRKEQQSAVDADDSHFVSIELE
Type: biochemical

**Q.** How did the inhibition at 25 µM turn out when `NCC(O)C12CC3CC(CC(C3)C1)C2` (racemic) [Cpd 5] was run?
**A.** The inhibition at 25 µM was 51 to 95%.

**Q.** Which inhibition at 25 µM does the source give for `c1ncn(C23CC4CC(CC(C4)C2)C3)n1` [Cpd 1] here?
**A.** The inhibition at 25 µM was 11 to 50%.

**Q.** `c1cn(C23CC4CC(CC(C4)C2)C3)cn1` [Cpd 2] was tested. Which inhibition at 25 µM did it give?
**A.** The inhibition at 25 µM was 11 to 50%.

**Q.** How did the inhibition at 25 µM turn out when `Nc1nc(N)n(C23CC4CC(CC(C4)C2)C3)n1` [Cpd 3] was run?
**A.** Its inhibition at 25 µM is 11 to 50%.

**Q.** How did the inhibition at 25 µM turn out when `Nc1ccn(C23CC4CC(CC(C4)C2)C3)n1` [Cpd 4] was run?
**A.** The inhibition at 25 µM was 11 to 50%.

**Q.** With `C1CNC(C23CC4CC(CC(C4)C2)C3)=N1` [Cpd 6] as the molecule, how does the inhibition at 25 µM read?
**A.** Its inhibition at 25 µM is 51 to 95%.

**Q.** Which inhibition at 25 µM does the source give for `NCC12CC3CC(C1)C(O)C(C3)C2` (stereo not shown) [Cpd 7] here?
**A.** Its inhibition at 25 µM is 11 to 50%.

**Q.** How did the inhibition at 25 µM turn out when `NCC12CC3CC(C1)C(F)C(C3)C2` (stereo not shown) [Cpd 8, C-(4-Fluoro-adamantan-1-yl)-methylamine] was run?
**A.** The inhibition at 25 µM was 51 to 95%.

**Q.** Which inhibition at 25 µM does the source give for `CC1(O)C2CC3CC1CC(CN)(C3)C2` (stereo not shown) [Cpd 11, 5-Aminomethyl-2-methyl-adamantan-2-ol] here?
**A.** Its inhibition at 25 µM is 11 to 50%.

**Q.** `NC12CC3CC(C1)CC(F)(C3)C2` [Cpd 12] was tested. Which inhibition at 25 µM did it give?
**A.** Its inhibition at 25 µM is 51 to 95%.

**Q.** With `NC12CC3CC(C1)C(F)C(C3)C2` (stereo not shown) [Cpd 13, 4-Fluoroadamantan-1-amine] as the molecule, how does the inhibition at 25 µM read?
**A.** Its inhibition at 25 µM is 51 to 95%.

**Q.** With `NC12CC3CC(C1)C(O)C(C3)C2` (stereo not shown) [Cpd 14] as the molecule, how does the inhibition at 25 µM read?
**A.** Its inhibition at 25 µM is 11 to 50%.

**Q.** `NC12CC3CC(C1)C(=O)C(C3)C2` [Cpd 15] was tested. Which inhibition at 25 µM did it give?
**A.** Its inhibition at 25 µM is 11 to 50%.

**Q.** Which inhibition at 25 µM does the source give for `N#CC1C2CC3CC1CC(N)(C3)C2` (stereo not shown) [Cpd 16, 5-Amino-adamantane-2-carbonitrile] here?
**A.** The inhibition at 25 µM was 51 to 95%.

**Q.** With `NC12CC3CC(C1)C(F)(F)C(C3)C2` [Cpd 17, 4,4-Difluoro-adamantan-1-ylamine] as the molecule, how does the inhibition at 25 µM read?
**A.** The inhibition at 25 µM was 11 to 50%.

**Q.** Which inhibition at 25 µM does the source give for `CC1(F)C2CC3CC1CC(N)(C3)C2` (stereo not shown) [Cpd 18, 4-Fluoro-4-methyl-adamantan-1-ylamine] here?
**A.** Its inhibition at 25 µM is 51 to 95%.

**Q.** How did the inhibition at 25 µM turn out when `NC12CC3CC(C1)C(=S)C(C3)C2` [Cpd 19, 5-Amino-adamantane-2-thione] was run?
**A.** Its inhibition at 25 µM is 11 to 50%.

**Q.** With `NC12CC3CC(C1)C(S)C(C3)C2` (stereo not shown) [Cpd 20, 5-Amino-adamantane-2-thiol] as the molecule, how does the inhibition at 25 µM read?
**A.** Its inhibition at 25 µM is 11 to 50%.

**Q.** With `NC12CC3CC(C1)C(CF)C(C3)C2` (stereo not shown) [Cpd 21, 4-Fluoromethyl-adamantan-1-ylamine] as the molecule, how does the inhibition at 25 µM read?
**A.** The inhibition at 25 µM was 51 to 95%.

**Q.** For `NC12CC3CC(C1)C(=NO)C(C3)C2` [Cpd 23, 5-Amino-adamantan-2-one oxime], which inhibition at 25 µM is on record?
**A.** The inhibition at 25 µM was 11 to 50%.

**Q.** How did the inhibition at 25 µM turn out when `NC12CC3CC(C1)C1(OCCO1)C(C3)C2` [Cpd 24] was run?
**A.** The inhibition at 25 µM was 11 to 50%.

**Q.** With `COC1C2CC3CC1CC(CN)(C3)C2` (stereo not shown) [Cpd 25, C-(4-Methoxy-adamantan-1-yl)-methylamine] as the molecule, how does the inhibition at 25 µM read?
**A.** The inhibition at 25 µM was 51 to 95%.

**Q.** With `N#CC1C2CC3CC1CC(CN)(C3)C2` (stereo not shown) [Cpd 26, 5-Aminomethyl-adamantane-2-carbonitrile] as the molecule, how does the inhibition at 25 µM read?
**A.** The inhibition at 25 µM was 51 to 95%.

**Q.** For `O=[N+]([O-])CC12CC3CC(C1)C(O)C(C3)C2` (stereo not shown) [Cpd 27, 5-Nitromethyl-adamantan-2-ol], which inhibition at 25 µM is on record?
**A.** The inhibition at 25 µM was 11 to 50%.

**Q.** With `O=[N+]([O-])CC12CC3CC(C1)C(F)C(C3)C2` (stereo not shown) [Cpd 28, 4-Fluoro-1-nitromethyl-adamantane] as the molecule, how does the inhibition at 25 µM read?
**A.** Its inhibition at 25 µM is 11 to 50%.

**Q.** With `NC12CC3CC(C1)CC(S)(C3)C2` [Cpd 29] as the molecule, how does the inhibition at 25 µM read?
**A.** The inhibition at 25 µM was 51 to 95%.

**Q.** Which inhibition at 25 µM does the source give for `O=[N+]([O-])C12CC3CC(CC(F)(C3)C1)C2` [Cpd 30, 3-Fluoro-1-nitro-adamantane] here?
**A.** The inhibition at 25 µM was 1 to 10%.

**Q.** `N=C(N)NC12CC3CC(CC(F)(C3)C1)C2` [Cpd 31, N-(3-Fluoro-adamantan-1-yl)-guanidine] was tested. Which inhibition at 25 µM did it give?
**A.** The inhibition at 25 µM was 11 to 50%.

**Q.** `COC12CC3CC(CC(N)(C3)C1)C2` [Cpd 32] was tested. Which inhibition at 25 µM did it give?
**A.** The inhibition at 25 µM was 1 to 10%.

**Q.** For `NC12CC3CC(CC(C3)C1O)C2` (stereo not shown) [Cpd 34], which inhibition at 25 µM is on record?
**A.** The inhibition at 25 µM was 51 to 95%.

**Q.** With `CC1(O)C2CC3CC(C2)CC1(N)C3` (stereo not shown) [Cpd 35, 1-Amino-2-methyl-adamantan-2-ol] as the molecule, how does the inhibition at 25 µM read?
**A.** Its inhibition at 25 µM is 11 to 50%.
